Results from PMC4226669, “Anti-cancer potency of tasquinimod is enhanced via albumin-binding facilitating increased uptake in the tumor microenvironment” (Oncotarget, 2014).

Legend:
[1] = tested on: CWR-22RH human prostate cancer; experiment: Tumor take of CWR-22RH xenografts in castrated nude mice; format: in vivo, mouse; settings: tasquinimod alone 10mg/kg/day via drinking water from inoculation
Experimental: To confirm this conclusion, castrated male nude mice were xenografted with the castrate resistant CWR-22RH human prostate cancer tissue and the animals immediately randomized into groups (n=10) which were: 1) left untreated as controls; 2) given daily oral treatment with tasquinimod alone via the drinking water (10mg/kg/day); 3) given oral ketoconazole alone via oral gavage at a daily dose which inhibits cytochrome P450 3A4 (i.e., 25 mg/kg/day); or 4) given a combination of the two drugs. […] These combined in vitro/in vivo results document tasquinimod, not one of its metabolites, is the active drug.
The source, history, and characteristics of the human prostate cancer cell lines (i.e., LNCaP, LAPC4, and CWR-22Rv1 and the human umbilical vascular endothelial cells (HUVEC) used, as well as cell culture conditions for their in vitro maintenance and the in vivo protocol for their xenografting into immune-deficient nude male mice are as described previously. The source, history, and characteristics of the TRAMP-C2 mouse prostate cancer line, as well as cell culture conditions for their in vitro maintenance and the in vivo protocol for their growth in intact adult male syngeneic C57Bl/6J are as described previously. All lines were mycoplasma negative using the MycoSensor PCR Assay kit (Agilent Technologies) and genetically authenticated within the last 6 months using short tandem repeat profiling conducted by the Johns Hopkins Genetic Resource Core Facility. The source, history, and characteristics of the CWR-RH human prostate cancer xenograft are as described previously. In vitro growth curves were determined as described. Animal studies were conducted according to animal protocol MO09M434 approved by Johns Hopkins Animal Care and Use Committee. Daily drug dosing via oral gavage, the drinking water, or subcutaneous injection, as well as tumor volume measurements and determination of the blood vessel density within cancers, were as described previously. These experiments were repeated at 3 independent times for each xenograft.

[2] = tested on: CWR-22Rv1 human prostate cancer cells; experiment: Plasma membrane associated vs nuclear drug uptake in CWR-22Rv1 cells; format: cell-based
Experimental: Based upon these preliminary validation, cells were incubated in 10% fetal bovine serum (FBS) supplemented media containing 1μM ^14C-labeled tasquinimod for <10 minutes. When these cells are rapidly (< 20sec) separated from the media by vacuum filtration onto glass microfiber filter and the filters rapidly (< 20sec) washed, radiolabeled drug is retained by the washed cells and this radioactivity can be used to calculate the total cell associated concentration of drug (CAt). If instead after the washes, media are added above the filters and allowed to remain for a 15 minutes “wash out” period before being vacuumed off and subsequently rapidly (< 20sec) washed with drug free media, […]. […] Thus, total plasma membrane associated drug concentration (PMt) is determined by subtracting the ICt from the CAt value.
To determine the total nuclear concentration of drug (Nt), a modified protocol was needed to allow the rapid lyses of cells and rapid isolation of cell nuclei by differential centrifugation. This could not be accomplished using the usual method of detergent lyses because detergents extract bound drug due to its lipophilicity. Therefore, a detergent free protocol using nitrogen cavitation was developed to rapidly lyse cells and allow the rapid isolation of nuclei via differential centrifugation. Using this cavitation protocol, it was documented that within 1 hour, total nuclear drug concentration (Nt) equals that of the protein-free drug concentration in the media (i.e., 0.2 μM), and that after 4 hours equals PMt (i.e., see Figure 3B, right panel for representative results for the CWR-22Rv1 cells). From 8 hours onward, Nt is more than 10 fold higher than the free and 2 fold higher than the total drug concentration in the media, Figure 3B, right panel. For example at 24 hours post exposure to 1 μM tasquinimod in 10% FBS containing media, the Nt is 2.4 ± 0.3 μM, Figure 3B, right panel. At this 24 hours period, total radioactive drug in isolated nuclei from all 3 prostate cancer lines, as well as HUVEC cells (i.e., nuclear concentration in these 4 lines ranged from 2.2-3.1 μM) was extracted with acetonitrile and the extracts analyzed by HPLC. […] To resolve this, nuclear uptake was determined 24 hours post exposure to 1 μM tasquinimod in serum free media. These studies again documented that nuclear tasquinimod concentration in these 4 cell lines ranged from 2.5-3.5 μM documenting that binding to albumin is not required for cell uptake.
A rapid filtration method was developed and validated to measures the kinetics of tasquinimod cell uptake on a series of human cell lines. To do this, exponentially growing cells in a tissue culture flask are trypsinized, and the number of single cells counted and their average diameter determined electronically using Cellometer AutoT4 (Nexcelom, Lawrence, MA). Then multiple replicates (N=3-6) of 10^7 cells per time point were incubated from 5 minutes to 48 hours. at 37°C in 1ml of tissue culture media containing 10% fetal bovine serum (FBS) plus 1μM ^14C-labeled tasquinimod. The cells in each replicate incubation were then rapidly separated from the tasquinimod containing media by vacuum filtration onto a 24mm Whatman GF/C glass microfiber filter (GE Healthcare Sciences, Piscataway, NJ) using a Millipore 1225 sampling manifold (Millipore, Billerica MA). The filters are then rapidly washed and filtered (<20 seconds per wash) 3 times with 2mls of drug free FBS containing tissue culture media. Half of the replicate filters are then dried overnight and counted for determination of the total cell associated amount of drug (i.e., plasma membrane associated plus intracellular uptake). To the remaining half of the replicate filters, 2mls of drug free FBS containing tissue culture media is added above the filters and allowed to remain there for 15 minutes before being filtered off. […]

time to steady state PMt ([2]; 1 μM in 10% FBS media): 5 to 10 min | total plasma membrane associated drug concentration (PMt), steady state ([2]; 1 μM in 10% FBS media, maintained to 48 hours): ~ 1 μM | total nuclear drug concentration (Nt) ([2]; 24 hours post exposure to 1 μM in 10% FBS containing media): 2.4 ± 0.3 µM | Nt relative to free drug concentration in the media ([2]; from 8 hours onward): more than 10 fold | Nt relative to total drug concentration in the media ([2]; from 8 hours onward): > 2 fold | total nuclear drug concentration (Nt) ([2]; within 1 hour, 1 μM in 10% FBS media): 0.2 µM
SMILES: COc1cccc2c1c(O)c(C(=O)N(C)c1ccc(C(F)(F)F)cc1)c(=O)n2C [Tasquinimod]
tumor take and subsequent malignant growth [1]: prevents tumor take
